The results in this text go back to patent US6696093B2, “Aldehyde donors for stabilizing peroxides” (Lonza Inc., priority 2000, dated 2004).

Data set [1] is described as follows: H2O2 stabilization in papermaking process water (Example 1). Conditions: for H2O2 residual: 45° C. The procedure:
Process waters from a papermaking facility which uses recycled fibers were collected during a bleaching stage and allowed to stand for 2 hours to achieve total depletion of the hydrogen peroxide in the process waters.
Into five separate Pyrex beakers were placed 400 ml of the process water. One was retained as a control. 150 and 300 ppm of an aqueous solution containing 40% by weight of 1,3-bis(hydroxymethyl)-5,5-dimethylhydantoin (DMDMH) (Dantogard®) were added to two beakers for a total concentration of 60 ppm and 120 ppm of DMDMH, respectively. On an equivalent aldehyde basis, this corresponds to 0.65 mEq/l and 1.30 mEq/l, respectively. 150 and 300 ppm of an aqueous solution containing […] of glutaraldehyde were added to the remaining two beakers for a total concentration of 83 ppm and 166 ppm of glutaraldehyde, respectively. On an equivalent aldehyde basis, this corresponds to 1.66 mEq/l and 3.32 mEq/l, respectively. The samples were placed in a controlled water bath at 45° C. and stirred with a magnetic stirrer set on slow agitation.
To all the test samples, a sufficient volume of a 1% (by weight) hydrogen peroxide (H2O2) aqueous solution was added to achieve a concentration of 20-25 ppm of hydrogen peroxide in the samples. At regular time intervals, over a 45 minute period, aliquots were removed and analyzed for peroxide residual (i.e. the concentration of hydrogen peroxide) using a thiosulfate titration kit (HACH Test Kit, Model HYP-1, available from Hach Company of Loveland, Colo.). The results, shown in Table 1, correlate to the amount of peroxide present at the specific time interval, expressed as ppm of hydrogen peroxide.

In the next data set the target is T1, catalase (Aspergillus niger, UniProt P55303).
T1 construct: purchased Sigma Aldrich C-3515; host or cells: A. niger derived
T1 sequence (P55303 whole entry): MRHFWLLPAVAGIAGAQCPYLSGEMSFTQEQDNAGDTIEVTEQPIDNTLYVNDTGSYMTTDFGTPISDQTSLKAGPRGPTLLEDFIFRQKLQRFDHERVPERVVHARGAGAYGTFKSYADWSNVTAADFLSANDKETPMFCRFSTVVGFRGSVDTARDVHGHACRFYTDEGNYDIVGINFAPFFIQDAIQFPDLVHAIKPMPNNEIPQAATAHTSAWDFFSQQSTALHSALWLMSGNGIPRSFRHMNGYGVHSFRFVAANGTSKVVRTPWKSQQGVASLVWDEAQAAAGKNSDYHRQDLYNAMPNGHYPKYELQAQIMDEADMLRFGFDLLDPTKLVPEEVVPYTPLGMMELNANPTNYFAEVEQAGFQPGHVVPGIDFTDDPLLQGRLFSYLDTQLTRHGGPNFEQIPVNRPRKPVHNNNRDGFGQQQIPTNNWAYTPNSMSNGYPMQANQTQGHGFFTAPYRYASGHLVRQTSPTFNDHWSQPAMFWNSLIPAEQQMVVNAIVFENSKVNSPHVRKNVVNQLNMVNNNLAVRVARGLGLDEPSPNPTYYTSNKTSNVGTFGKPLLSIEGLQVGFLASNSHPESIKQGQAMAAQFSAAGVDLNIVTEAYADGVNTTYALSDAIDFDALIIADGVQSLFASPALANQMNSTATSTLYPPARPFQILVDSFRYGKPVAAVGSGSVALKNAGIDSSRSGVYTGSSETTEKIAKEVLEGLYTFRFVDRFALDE
As to the kind of experiment: Catalase promoted hydrogen peroxide decomposition in phosphate buffer pH 7.0 (Example 6). It is filed as biochemical, A. niger. Particulars: 526 ppm product. The method, then: Hydrogen peroxide solutions containing 470 ppm active peroxide in sterile Butterfield's phosphate buffer (pH=7.0) were treated with 1.2 units of catalase (A. niger available from Sigma Aldrich of St. Louis, Mo. (C-3515)) alone or with 263 or 526 ppm of Dantogard® 2000, available from Lonza Inc. of Fair Lawn, N.J., or 526 ppm of an aqueous 49% glutaraldehyde solution. Dantogard® 2000 is a 65% aqueous mixture of DMDMH, MMDMH and DMH having a minimal free formaldehyde concentration. The peroxide decomposition rate was monitored during the decrease in peroxide concentration from 390 to 350 ppm by ultraviolet absorbance at 240 nm. The temperature was 23° C.

On to `CC1(C)C(=O)N(CO)C(=O)N1CO` [DMDMH, 1,3-bis(hydroxymethyl)-5,5-dimethylhydantoin], for which the H2O2 residual in data set [1] (60 ppm DMDMH, 0 min) turned out to be 25 ppm H2O2; in data set [1] (60 ppm DMDMH, 10 min), 24 ppm H2O2; in data set [1] (60 ppm DMDMH, 15 min) it was 23 ppm H2O2; in data set [1] (60 ppm DMDMH, 20 min), 22 ppm H2O2; in data set [1] (60 ppm DMDMH, 30 min), 18 ppm H2O2; in data set [1] (60 ppm DMDMH, 40 min), 16 ppm H2O2. Also, the H2O2 residual in data set [1] (60 ppm DMDMH, 45 min) came out at 15 ppm H2O2; in data set [1] (120 ppm DMDMH, 0 min) it was 26 ppm H2O2; in data set [1] (120 ppm DMDMH, 10 min) it was 24 ppm H2O2; in data set [1] (120 ppm DMDMH, 15 min), 23 ppm H2O2; in data set [1] (120 ppm DMDMH, 20 min), 20 ppm H2O2; in data set [1] (120 ppm DMDMH, 30 min), 18 ppm H2O2. The H2O2 residual is listed as 17 ppm H2O2 in data set [1] (120 ppm DMDMH, 40 min) and 16 ppm H2O2 in data set [1] (120 ppm DMDMH, 45 min). The “peroxide stabilization compared to glutaraldehyde” value in data set [1] (Table 1 comparison, ppm product basis) is listed as “superior peroxide stabilization compared to glutaraldehyde”.
For `O=CCCCC=O` [Glutaraldehyde, glutaraldehyde], the H2O2 residual amounted to 25 ppm H2O2 in data set [1] (83 ppm glutaraldehyde, 0 min); 24 ppm H2O2 in data set [1] (83 ppm glutaraldehyde, 10 min); 22 ppm H2O2 in data set [1] (83 ppm glutaraldehyde, 15 min); 20 ppm H2O2 in data set [1] (83 ppm glutaraldehyde, 20 min); 16 ppm H2O2 in data set [1] (83 ppm glutaraldehyde, 30 min); 14 ppm H2O2 in data set [1] (83 ppm glutaraldehyde, 40 min). Further, the H2O2 residual is recorded as 12 ppm H2O2 in data set [1] (83 ppm glutaraldehyde, 45 min); 26 ppm H2O2 in data set [1] (166 ppm glutaraldehyde, 0 min); 24 ppm H2O2 in data set [1] (166 ppm glutaraldehyde, 10 min); 21 ppm H2O2 in data set [1] (166 ppm glutaraldehyde, 15 min); 19 ppm H2O2 in data set [1] (166 ppm glutaraldehyde, 20 min); 17 ppm H2O2 in data set [1] (166 ppm glutaraldehyde, 30 min). Further, the H2O2 residual was 15 ppm H2O2 in data set [1] (166 ppm glutaraldehyde, 40 min) and 13 ppm H2O2 in data set [1] (166 ppm glutaraldehyde, 45 min). Moreover, the “Peroxide Decomposition Rate” value at catalase (1.2 units catalase, pH 7.0, 23° C., peroxide 390 to 350 ppm) was 0.230 ppm/sec. On catalase (control = 1.00), the “Normalized Decomposition Rate” value was 1.0.
